Test results published in paper PMC11945486, “TAS1R2/TAS1R3 Single-Nucleotide Polymorphisms Affect Sweet Taste Receptor Activation by Sweeteners: The SWEET Project” (Nutrients, 2025).
Like-named read-outs stand apart in the source and are kept apart here. Values belong to the molecule of their own block, whether it stands above or below them. No end group written: not given here.

Molecular target: T1, human TAS1R2-WT/TAS1R3-A735T (Homo sapiens, UniProt Q7RTX0+Q8TE23, A735T)
T1 construct: expressed in transfected cells; host or cells: HEK293T stably expressing Gα16gust44
T1 sequence (Q8TE23 20-839): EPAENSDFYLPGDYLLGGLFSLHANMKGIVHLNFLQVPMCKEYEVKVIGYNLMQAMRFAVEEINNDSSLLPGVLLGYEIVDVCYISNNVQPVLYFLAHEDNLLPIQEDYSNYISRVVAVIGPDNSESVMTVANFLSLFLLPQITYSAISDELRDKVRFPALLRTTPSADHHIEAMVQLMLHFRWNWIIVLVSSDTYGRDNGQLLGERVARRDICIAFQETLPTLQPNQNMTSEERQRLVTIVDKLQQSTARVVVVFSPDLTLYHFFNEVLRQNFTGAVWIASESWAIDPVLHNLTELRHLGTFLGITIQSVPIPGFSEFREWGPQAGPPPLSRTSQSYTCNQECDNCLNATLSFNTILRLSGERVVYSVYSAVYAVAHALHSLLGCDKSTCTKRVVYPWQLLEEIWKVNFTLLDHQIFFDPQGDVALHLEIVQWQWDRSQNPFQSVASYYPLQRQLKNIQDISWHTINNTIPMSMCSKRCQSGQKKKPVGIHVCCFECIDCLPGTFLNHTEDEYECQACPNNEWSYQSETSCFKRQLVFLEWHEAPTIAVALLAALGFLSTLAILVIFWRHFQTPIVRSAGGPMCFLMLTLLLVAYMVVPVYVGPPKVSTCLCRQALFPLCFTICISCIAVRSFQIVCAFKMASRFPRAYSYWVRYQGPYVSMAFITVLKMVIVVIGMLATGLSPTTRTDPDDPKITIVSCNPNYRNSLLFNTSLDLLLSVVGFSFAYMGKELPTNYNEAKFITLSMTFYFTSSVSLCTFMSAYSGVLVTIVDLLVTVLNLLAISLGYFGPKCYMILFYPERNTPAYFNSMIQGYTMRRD
T1 sequence (Q7RTX0 21-852 A735T): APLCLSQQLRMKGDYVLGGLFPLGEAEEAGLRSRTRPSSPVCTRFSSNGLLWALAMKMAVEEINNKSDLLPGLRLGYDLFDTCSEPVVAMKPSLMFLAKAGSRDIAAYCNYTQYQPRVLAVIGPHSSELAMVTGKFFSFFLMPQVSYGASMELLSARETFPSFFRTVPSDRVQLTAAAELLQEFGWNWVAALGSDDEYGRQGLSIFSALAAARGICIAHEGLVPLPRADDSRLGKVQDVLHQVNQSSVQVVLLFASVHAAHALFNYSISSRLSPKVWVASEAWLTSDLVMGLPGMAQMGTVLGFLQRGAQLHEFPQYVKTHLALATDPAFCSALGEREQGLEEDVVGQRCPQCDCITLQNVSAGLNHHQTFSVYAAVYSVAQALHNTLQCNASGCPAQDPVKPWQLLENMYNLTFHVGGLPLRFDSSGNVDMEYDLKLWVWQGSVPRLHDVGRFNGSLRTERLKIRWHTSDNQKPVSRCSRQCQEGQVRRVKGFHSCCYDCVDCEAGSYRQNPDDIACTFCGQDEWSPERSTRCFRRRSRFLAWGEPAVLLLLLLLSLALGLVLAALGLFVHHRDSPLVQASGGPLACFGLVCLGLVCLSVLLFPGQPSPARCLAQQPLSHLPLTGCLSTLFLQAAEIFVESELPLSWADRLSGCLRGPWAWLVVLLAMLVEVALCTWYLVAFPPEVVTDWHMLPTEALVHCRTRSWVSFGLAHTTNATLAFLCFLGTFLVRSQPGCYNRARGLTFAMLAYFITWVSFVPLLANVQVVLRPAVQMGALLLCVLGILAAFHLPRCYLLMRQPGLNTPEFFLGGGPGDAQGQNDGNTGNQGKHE
Assay: Calcium mobilisation assay, TAS1R2-WT with TAS1R3 variant A735T
Type: cell-based
Conditions: for Max ΔF/F0: maximal signal amplitude
From the text: The coding sequences for TAS1R2 and TAS1R3 were commercially synthesised, and the human codon was optimised for expression in human cells. The coding sequences of human TAS1R2 and TAS1R3 were subcloned and inserted into the mammalian expression vectors pcDNA6/myc-HisA and pcDNA4/myc-HisA (Invitrogen; Thermo Fisher Scientific; Illkirch, France) between the EcoRI and NotI restriction sites, generating the plasmids pcDNA6-TAS1R2 and pcDNA4-TAS1R3, respectively. To increase protein expression in mammalian cells, an upstream start codon was used, which was a sequence called MAX, corresponding to the QBI SP163 element also described in pcDNA4-HisMax (Invitrogen; Thermo Fisher Scientific; Illkirch, France). To measure the expression level of the receptor by immunohistochemistry, we used the FLAG sequence ([…]) in the C-terminal position, which encodes the FLAG tag epitope. SNP variants of TAS1R2 and TAS1R3 were constructed based on […], respectively, using site-directed mutagenesis (Genewiz; Leipzig, Germany).
The HEK293T cells were kindly provided by Jay P. Slack (Givaudan Flavors Corporation; Cincinnati, OH, USA). HEK293T cells stably transfected with Gα16gust44 [43, 67] were seeded in poly-D-lysine-coated clear-bottom black 96-well plates (0.35 × 10^5 cells/well) in high-glucose DMEM supplemented with 2 mM GlutaMAX, 10% dialysed foetal bovine serum with penicillin/streptomycin and G418 (400 μg/mL) at 37 °C and 6.3% CO2 in a humidified atmosphere as previously reported. […] As a negative control, HEK293T cells were mock-transfected with the empty expression vector. After a further 24 h of incubation, the HEK293T cells were washed with C1 buffer (130 mM NaCl, 5 mM KCl, 10 mM HEPES pH 7.4 and 2 mM CaCl2). The 96-well plates containing the cells were then stimulated with sweet-tasting compounds. […] Different concentration ranges were tested depending on the sweet compound injected. The Ca^2+ changes were expressed as fractional changes in fluorescent light intensity: ΔF/F = (F − F0)/F0, where F was the fluorescent light intensity at each point, and F0 was the value of emitted fluorescent light prior to stimulus application. To calculate dose–response relationships, the changes in fluorescence upon stimulus application were averaged, mock-subtracted and baseline-corrected. The dose–response data obtained were adjusted using a 4-parameter logistic equation. The half-maximal effective concentrations (EC50 values) and maximal signal amplitudes were calculated using SigmaPlot software (version 15.0) (Systat Software; San Jose, CA, USA).
For in vitro calcium mobilisation assay performed on hTAS1R2-SNPs, hTAS1R3-SNPs and mTAS1R3-I60T, 6 to 7 concentrations were tested for each sweet compound, plus buffer alone. All concentration–receptor combinations were measured in duplicate, and each experiment was repeated at least 4 times (8 wells/concentration). Results were expressed for each concentration as ΔF/F mean ± SEM and represented as dose–response curves.

Molecule: CC1=CC(=O)NS(=O)(=O)O1 [Acesulfame K, acesulfame K]
R1 = Variant EC50/WT EC50: 1.1
Max ΔF/F0: 0.47 ± 0.02
EC50 (read-out: EC50): 685 ± 56 µM

Molecule: O=S(=O)(O)NC1CCCCC1 [Cyclamate, cyclamate]
EC50 (read-out: EC50): 1870 ± 32 µM

Molecule: C[C@H](CC[C@@H](O[C@@H]1O[C@H](CO[C@@H]2O[C@H](CO)[C@@H](O)[C@H](O)[C@H]2O)[C@@H](O)[C@H](O)[C@H]1O[C@@H]1O[C@H](CO)[C@@H](O)[C@H](O)[C@H]1O)C(C)(C)O)[C@H]1CC[C@@]2(C)[C@@H]3CC=C4[C@@H](CC[C@H](O[C@@H]5O[C@H](CO[C@@H]6O[C@H](CO)[C@@H](O)[C@H](O)[C@H]6O)[C@@H](O)[C@H](O)[C@H]5O)C4(C)C)[C@]3(C)[C@H](O)C[C@]12C [Mogroside V, mogroside V]
R1 = Variant EC50/WT EC50: 0.9
Max ΔF/F0: 1.17 ± 0.03
EC50 (read-out: EC50): 28.7 ± 2.2 µM

Molecule: COc1ccc(CCC(=O)c2c(O)cc(O[C@@H]3O[C@H](CO)[C@@H](O)[C@H](O)[C@H]3O[C@@H]3O[C@@H](C)[C@H](O)[C@@H](O)[C@H]3O)cc2O)cc1O [NHDC, neohesperidin dihydrochalcone]
R1 = Variant EC50/WT EC50: 0.8
Max ΔF/F0: 1.00 ± 0.01
EC50 (read-out: EC50): 42.2 ± 1.4 µM

Molecule: COC(=O)[C@H](Cc1ccccc1)NC(=O)[C@H](CC(=O)O)NCCC(C)(C)C [Neotame]
R1 = Variant EC50/WT EC50: 0.8
Max ΔF/F0: 0.61 ± 0.02
EC50 (read-out: EC50): 0.93 ± 0.07 µM

Molecule: C=C(C)[C@@H]1CC=C(/C=N/O)CC1 [Perillartine, perillartine]
R1 = Variant EC50/WT EC50: 0.9
Max ΔF/F0: 1.56 ± 0.23
EC50 (read-out: EC50): 12.6 ± 5.9 µM

Molecule: C=C1C[C@@]23CC[C@H]4[C@@](C)(CCC[C@@]4(C)C(=O)O[C@@H]4O[C@H](CO)[C@@H](O)[C@H](O[C@@H]5O[C@H](CO)[C@@H](O)[C@H](O)[C@H]5O)[C@H]4O[C@@H]4O[C@H](CO)[C@@H](O)[C@H](O)[C@H]4O)[C@@H]2CC[C@]1(O[C@@H]1O[C@H](CO)[C@@H](O)[C@H](O[C@@H]2O[C@H](CO)[C@@H](O)[C@H](O)[C@H]2O)[C@H]1O[C@@H]1O[C@H](CO)[C@@H](O)[C@H](O)[C@H]1O)C3 [Rebaudioside M, rebaudioside M]
R1 = Variant EC50/WT EC50: 0.6
Max ΔF/F0: 1.24 ± 0.04
EC50 (read-out: EC50): 23 ± 1.9 µM

Second part, the molecule after the results:

R1 = Variant EC50/WT EC50: 1.4
Max ΔF/F0: 0.70 ± 0.01
EC50 (read-out: EC50): 151 ± 4 µM
Molecule: OC[C@H]1O[C@H](O[C@]2(CCl)O[C@H](CCl)[C@@H](O)[C@@H]2O)[C@H](O)[C@@H](O)[C@H]1Cl [Sucralose]

R1 = Variant EC50/WT EC50: 0.7
EC50 (brazzein): 82.7 ± 14.9 µg/mL
Max ΔF/F0: 0.90 ± 0.05
Molecule: brazzein (QDKCKKVYENYPVSKCQLANQCNYDCKLDKHARSGECFYDEKRNLQCICDYCEY; ends and bridges not checked; cysteine pairing not given here; UniProt P56552 1-54, looked up) [sweet-tasting protein obtained by recombinant production using the yeast Pichia pastoris]

R1 = Variant EC50/WT EC50: 0.7
Max ΔF/F0: 0.70 ± 0.06
Molecule: thaumatin

EC50 (read-out: EC50): 7.2 ± 1.5 µM
B1: thaumatin (protein)
chain: ATFEIVNRCSYTVWAAASKGDAALDAGGRQLNSGESWTINVEPGTKGGKIWARTDCYFDDSGSGICKTGDCGGLLRCKRFGRPPTTLAEFSLNQYGKDYIDISNIKGFNVPMDFSPTTRGCRGVRCAADIVGQCPAKLKAPGGGCNDACTVFQTSEYCCTTGKCGPTEYSRFFKRLCPDAFSYVLDKPTTVTCPGSSNYRVTFCPTA
modifications: Eight disulfides
notes: sweet-tasting plant protein, E957
